Experimental data: patent US11331328B2, “Compositions and methods for inhibiting antiapoptotic Bcl-2 proteins as anti-aging agents” (priority 2014, dated 2022)
Like-named read-outs stand apart in the source and are kept apart here. Peptide text beside a SMILES is read from it. * marks the point of attachment. Cbz = O=C(OCc1ccccc1)*

Legend:
[1] = tested on: IR-induced senescent WI-38 cells (SC); assay: Cell viability (PI flow cytometry), LD50 in IR-induced senescent WI-38 cells; format: cell-based, human; conditions: for LD50 Ratio (NC/SC): non-senescent vs IR-induced senescent WI-38 cells
Method: (§1) Mouse embryonic fibroblasts (MEF) were isolated from mouse embryos as described^1. All cells were cultured in a complete medium (CM) (Dulbecco's Modified Eagle Medium supplemented with 10% fetal bovine serum [FBS], 100 U/ml penicillin, and 100 μg/ml streptomycin [all from Atlanta Biologicals, Norcross, Ga., and USA]) in a humidified incubator at 37° C. and 5% CO2. Low passages of WI-38 cells (<25), IMR-90 (<25), REC cells (<25) and MEF (<3) were used as non-senescent controls or for induction of senescence to avoid replicative senescence. […] To induce senescence by expression of oncogenic Ras (Ras^V12), WI-38 cells were infected with the retroviruses pBabe-H-Ras or pBabe-puro (control) (Addgene, Cambridge, Mass., UAS)^2, 3. […] Senescent cells were maintained in culture for a few days, changing the culture medium every 3 days until use. For in vitro cell culture experiments, we usually repeated the experiments for at least three times to ensure the reproducibility of the data. In addition, the repeats of the experiments for three times will allow us to obtain 3 independent observations for statistical analysis.
(§2) Flow cytometry: Non-senescent and senescent cells were seeded into wells of 24- or 48-well at about 70% of confluence. […] Both quiescent non-senescent cells and permanently growth arrested senescent cells were treated with vehicle (0.1% DMSO or PBS) or increasing concentrations of the compounds listed in Table 1 for various durations. […] After incubated with propidium iodide (PI 100 ng/ml) in PBS at room temperature for 1 min, cells were centrifuged at 1200 rpm for 6 min and then resuspended in PBS with 2% of FBS for analysis by a BD LSR II flow cytometer (BD Biosciences, San Jose, Calif., USA). Viable cells (PI^− cells) were numerated by flow cytometry at a constant flow rate and calculated as a percentage of control cells treated with vehicle using the formula: percentage of control=(Ndrug/NC)×100, where Ndrug and NC represent the absolute number of PI^− viable cells of drug-treated and vehicle-treated cells, respectively.
(§3) MTT (3-[4,5-dimethylthiazol-2-yl]-2,5 diphenyl tetrazolium bromide) assay: Cells were harvested, washed and resuspended in CM and added to wells of 24- or 48-well plates as described above. […] After 4 h at 37° C., the formazan was solubilized by lysing the cells with 300 μl of DMSO. Absorbance of formazan was measured at 595 nm using a Microplate Reader (BioTek, Winooski, Vt., USA). Cell viability was calculated in the method as previously described^4.
(§4) Trypan blue exclusion assay: Cells were harvested, washed and resuspended in CM and added to wells of a 6-well plate as described above. […] Living cells stained negative for trypan blue and were counted under light microscopy.
(§5) Briefly, Probit (set as y) was determined by looking up their correspondence to the % responded in Finney's table. The log of the compound concentrations was used as x. By fitting a line of regression, we produce the formula y=ax+b.

[2] = tested on: non-senescent WI-38 cells (NC); assay: Cell viability (PI flow cytometry), LD50 in non-senescent WI-38 cells; format: cell-based, human
Method: as §1, §2, §3, §4, §5

[3] = tested on: senescent cells in TBI p16-3MR mice; assay: Senescent cell clearance in TBI p16-3MR mice (luminescence, p16 mRNA); format: in vivo, mouse; conditions: 6 Gy TBI; 2 treatment cycles
Method: ABT was given by gavage at 50 mg/kg/d for 7 d per cycle for 2 cycles with a 2-wk interval. GCV was given to the mice by ip injection at 25 mg/kg/d for 5 d per cycle for 2 cycles with a 2-wk interval. […] The mice were euthanized the day after the imaging by CO2 inhalation and followed by cervical dislocation. Tissues were harvested for immediate tissue luminescence imaging as described below or RNA extraction for analyses of p16, IL-1α, CCL-5, and CXCL-10 mRNA levels by qRT-PCR.
For in vivo luminescence, mice were injected i.p. with 250 μl of Xenolight RediJect Coelenterazine h (100 μg/mL, Calipers-PerkinElmer, Waltham, Mass., USA). The mice were anesthetized with 4% isoflurane gas at 1 L/minute oxygen flow 5 min after the injection. Luminescence images were acquired using a Xenogen IVIS-200 Optical In Vivo imaging System equipped with a Living Image Version 4.3.1 (Caliper Life Sciences, Hopkinton Mass., USA). Mice were oriented in a supine position in the scanner. […]
For tissue luminescence imaging, after harvested from euthanized mice, tissues were immediately soaked in pre-warmed (37° C.) PBS with 2% FBS and 1:10 dilution of Xenolight RediJect Coelenterazine h for 10 min. They were transferred into a new 35-mm dish and luminescence images were taken 12-15 min after soaking in the substrate solution using a Xenogen IVIS-200 Optical In Vivo imaging System. […]

[4] = tested on: IL-1α, TNFα, CCL-5, CXCL-10 mRNA; assay: SASP mRNA levels in lungs of TBI p16-3MR mice (qRT-PCR); format: in vivo, mouse; conditions: 6 Gy TBI; 2 treatment cycles
Method: To measure p21 and GAPDH mRNA levels in WI-38 cells and IL-1α, TNFα, CCL-5, and CXCL-10 mRNA levels in mouse tissues, SYBR assay kit was used (Applied biosystems in life technologies). Briefly, 1 μl cDNA was mixed with 7.5 μl SYBR Green PCR Master Mix and 0.2 μl of primers (Table 5). Samples were then added with 6.30 μl of H2O to give a total 15 μl of mixture. qPCR conditions were as follows: 95° C. for 10 min, 40×(95° C. for 15 s and 60° C. for 1 min), 95° C. for […], 95° C. for 15 min. All reactions were run in triplicate on an ABI StepOnePlus Real-Time PCR System.

[5] = tested on: wild-type or p16-3MR mice; conditions: at the doses used; cited from earlier work
[6] = Homo sapiens, WI-38 fibroblasts, IR-induced senescent, LD50 by Probit Analysis, read-out: LD50 (μM) for senescent cells (SC)
[7] = Homo sapiens, WI-38 fibroblasts, non-senescent, LD50 by Probit Analysis, read-out: LD50 (μM) for non-senescent cells (NC)
[8] = WI-38 fibroblasts, IR-induced senescent, LD50 by Probit Analysis, read-out: LD50 (μM) for senescent cells (SC)
[9] = WI-38 fibroblasts, non-senescent, LD50 by Probit Analysis, read-out: LD50 (μM) for non-senescent cells (NC)
[10] = Homo sapiens, WI-38, read-out: LD50 (μM) for senescent cells (SC)
[11] = Homo sapiens, WI-38, read-out: LD50 (μM) for non-senescent cells (NC)

Row | Molecule | IC50 [1, 6] | LD50 Ratio (NC/SC) [1] | CC50 [2, 7] | IC50 [1, 8] | CC50 [2, 9] | also measured
1 | O=CC[C@@H](O)[C@H](O)[C@H](O)CO [2-Deoxy-D-glucose] | 8890 µM | 0.5 | 4800 µM |  |  | 
2 | O=C(O)C(=O)CBr [3-bromopyruvate] |  | 0.8 |  | 370.00 µM | 280.00 µM | 
3 | CC1(C)CCC(CN2CCN(c3ccc(C(=O)NS(=O)(=O)c4ccc(NCC5CCOCC5)c([N+](=O)[O-])c4)c(Oc4cnc5[nH]ccc5c4)c3)CC2)=C(c2ccc(Cl)cc2)C1 [ABT199] | > 10 µM |  | > 10 µM |  |  | selective killing of SCs (viable WI-38 cells, NC vs IR-SC) ([1]; 5 μM ABT199, 0.5 μM WEHI539, or both, 72 h): did not selectively kill SCs
4 | CC(=O)OC[C@H]1O[C@@H]([S-])[C@H](OC(C)=O)[C@@H](OC(C)=O)[C@@H]1OC(C)=O.CCP(CC)CC.[Au+] [Auranofin] |  | 1.0 |  | 5.34 µM | 5.13 µM | 
5 | Cc1ccc2nc(NCCN)c3ncc(C)n3c2c1 [BMS345541] | 10.8 µM | 0.6 | 6.87 µM |  |  | 
6 | CC(C)C[C@H](NC(=O)[C@H](Cc1ccccc1)NC(=O)c1cnccn1)B(O)O [Bortzomib] |  | 0.7 |  | 0.024 µM | 0.016 µM | 
7 | CCCCS(=N)(=O)CCC(N)C(=O)O (stereo not shown) [Buthionine sulfoximine] | 2390 µM | 1.0 | 2340 µM |  |  | 
8 | O=C(O)CCCCC(CCSCc1ccccc1)SCc1ccccc1 (stereo not shown) [CPI-613] | 205 µM | 1.1 | 223 µM |  |  | 
9 | CCCCCCCCCC[P+](c1ccccc1)(c1ccccc1)c1ccccc1 [Decyl-triphenylphosphonium] |  | 1.4 |  |  |  | IC50 [1, 10]: 0.98 µM; CC50 [2, 11]: 1.41 µM
10 | C[C@]12CC[C@H](O)CC1=CC[C@@H]1[C@@H]2CC[C@]2(C)C(=O)CC[C@@H]12 [Dehydroepiandrosterone] | 510 µM | 0.6 | 296 µM |  |  | 
11 | CNCCCN1c2ccccc2CCc2ccccc21 [Despramine] |  | 1.0 |  | 51.13 µM | 50.03 µM | 
12 | CS[C@H]1SC[C@H]2C(=O)N(C)[C@@H](C(C)C)C(=O)OC[C@@H](NC(=O)c3cnc4ccccc4n3)C(=O)N[C@@H](C)C(=O)N(C)[C@@H]1C(=O)N(C)[C@@H](C(C)C)C(=O)OC[C@@H](NC(=O)c1cnc3ccccc3n1)C(=O)N[C@@H](C)C(=O)N2C [Echinomycin] |  | 0.2 |  |  |  | IC50 [1, 10]: 2.86 µM; CC50 [2, 11]: 0.42 µM
13 | Nc1nc(O)c2ncn(COC(CO)CO)c2n1 [GCV, ganciclovir] |  |  |  |  |  | SCs in lungs (luminescence, p16 mRNA) [3]: reduced IR-induced SCs; SASP in lungs [4]: suppressed the SASP induced by TBI; toxicity to mice [5]: non-toxic to wild-type or p16-3MR mice
14 | OO [Hydrogen peroxide] | 231 µM | 0.58 | 135 µM |  |  | 
15 | C=CCNc1c(O)cc2c(O)c1C[C@@H](C)C[C@H](OC)[C@H](O)[C@@H](C)/C=C(\C)[C@H](OC(N)=O)[C@@H](OC)/C=C\C=C(/C)C(=O)N2 [IPI-504] |  | 0.2 |  |  |  | IC50 [1, 10]: 0.93 µM; CC50 [2, 11]: 0.14 µM
16 | O=c1cc(-c2cccc3c2Sc2ccccc2S3)oc(N2CCOCC2)c1 [KU55933] | 30.7 µM | 0.2 | 5.1 µM |  |  | 
17 | CC(C)C[C@@H](C=O)NC(=O)[C@H](CC(C)C)NC(=O)[C@H](CC(C)C)NC(=O)OCc1ccccc1 [MG132] (Cbz-Leu-Leu-Leu-aldehyde) |  | 0.1 |  |  |  | IC50 [1, 10]: 1.92 µM; CC50 [2, 11]: 0.24 µM

Row | Molecule | IC50 [1, 6] | LD50 Ratio (NC/SC) [1] | CC50 [2, 7] | IC50 [1, 8] | CC50 [2, 9] | also measured
18 | Cc1csc(=NC2CCCCC2)n1/N=C/c1ccc(O)c(O)c1O [MIM1] |  | 1.0 |  | >50.00 µM | >50.00 µM | 
19 | O=c1cc(N2CCOCC2)oc2c1ccc1ccccc12 [NU7026] |  | 0.7 |  | 64.03 µM | 47.02 µM | 
20 | COc1ccc(C2=N[C@@H](c3ccc(Cl)cc3)[C@@H](c3ccc(Cl)cc3)N2C(=O)N2CCNC(=O)C2)c(OC(C)C)c1 [Nutlin3] |  | 0.1 |  | 82.16 µM | 5.62 µM | 
21 | S=C=NCCc1ccccc1 [Phenethyl isothiocyanate (PEITC), Phenethyl isothiocyanate] | > 10 µM | <1.0 | < 10 µM |  |  | 
22 | CC1=CC(=O)c2c(O)cccc2C1=O [Plumbagin] | 8.7 µM | 1.5 | 12.6 µM |  |  | 
23 | CCCCCCCCCCCCC/C=C/[C@@H](O)[C@@H](N)CO[C@@H]1O[C@H](CO)[C@H](O)[C@H](O)[C@H]1O [Psychosine] |  | 0.9 |  | 52.25 µM | 46.32 µM | 
24 | CO[C@H]1C[C@@H]2CC[C@@H](C)[C@@](O)(O2)C(=O)C(=O)N2CCCC[C@H]2C(=O)O[C@H]([C@H](C)C[C@@H]2CC[C@@H](O)[C@H](OC)C2)CC(=O)[C@H](C)/C=C(\C)[C@@H](O)[C@@H](OC)C(=O)[C@H](C)C[C@H](C)/C=C/C=C/C=C/1C [Rapamycin] |  | 1.0 |  |  |  | IC50 [1, 10]: > 0.04 µM; CC50 [2, 11]: > 0.04 µM
25 | Oc1ccc(-c2nc(-c3ccncc3)c(-c3ccc(F)cc3)[nH]2)cc1 [SB202190] | > 800 µM |  | > 800 µM |  |  | 
26 | NCCCNCCCCNCCCN [Spermine] | > 40 µM |  | > 40 µM |  |  | 
27 | CC(C)(C)c1ccc(C(O)CCCN2CCC(C(O)(c3ccccc3)c3ccccc3)CC2)cc1 (stereo not shown) [Terfenadine] | 6.87 µM | 0.9 | 6.13 µM |  |  | 
28 | CC(/C=C/C(=O)NO)=C\[C@@H](C)C(=O)c1ccc(N(C)C)cc1 [Trichostatin A(TSA), Trichostatin A] |  | 1.87 |  | 0.39 µM | 0.72 µM | 
29 | O=C(CCCCCCC(=O)Nc1ccccc1)NO [Vorinostat(SAHA), Vorinostat] | 2.21 µM | 0.38 | 0.85 µM |  |  | 
30 | COc1c(O)cc(O)c2c(=O)cc(-c3ccccc3)oc12 [Wogonin] |  | 1.0 |  |  |  | IC50 [1, 10]: > 200 µM; CC50 [2, 11]: > 200 µM
31 | COCCn1c2c([n+](Cc3cnccn3)c1C)C(=O)c1ccccc1C2=O [YM-155] | 50 µM | 1.6 | 78.4 µM |  |  | 
32 | Arsenic trioxide |  | 0.9 |  | 18.26 µM | 15.65 µM | 
33 | Balifomycin A1 |  | 1.3 |  | 22.11 µM | 29.71 µM | 
